Reference: ChEMBL document CHEMBL6182926, “Design, Synthesis, and Biological Activity Evaluation of Deuterated Diphenyl Azole Alcohol-Based CYP51 Inhibitors” (J Med Chem, 2025)
Converted amounts (≈) assume the structure as drawn. The source made the active and inactive calls. The calls are words filed in the database; no cut-off is given here.

Assays:
Candida albicans [1] = experiment: Antifungal activity against Candida albicans CPCC 400616 assessed as inhibition of visible growth; type: functional
Nakaseomyces glabratus [2] = experiment: Fungicidal activity against Clinical isolate Candida glabrata assessed as concentration of colonies (< 5) measured after 48 hrs incubation; type: functional
Candida albicans [3] = experiment: Antifungal activity against Candida albicans SC5314 assessed as reduction in ergosterol at 4 ug/ml measured after 18 hrs incubation by gas chromatography-mass spectrometry (GCMS) analysis (reference value: 96.72%); type: functional; design: scale not given: the % may be the effect or the level left; conditions: dose 4 µg/ml
Candida tropicalis = experiment: Antifungal activity against Candida tropicalis CGMCC 2.3739 assessed as inhibition of visible growth; type: functional
Candida albicans [4] = experiment: Antifungal activity against Candida albicans SC5314 assessed as reduction in other sterol at 4 ug/ml measured after 18 hrs incubation by gas chromatography-mass spectrometry (GCMS) analysis (reference value: 2.59%); type: functional; design: scale not given: the % may be the effect or the level left; conditions: dose 4 µg/ml
Candida albicans [5] = experiment: Antifungal activity against Candida albicans SC 5314 assessed as inhibition of visible growth; type: functional
Cryptococcus neoformans [6] = experiment: Antifungal activity against Cryptococcus neoformans CGMCC 2.3161 assessed as reduction in Eburicol at 8 ug/ml measured after 18 hrs incubation by gas chromatography-mass spectrometry (GCMS) analysis; type: functional; design: scale not given: the % may be the effect or the level left; conditions: dose 8 µg/ml
Candida albicans [7] = experiment: Antifungal activity against Candida albicans SC5314 assessed as reduction in Lanosterol at 4 ug/ml measured after 18 hrs incubation by gas chromatography-mass spectrometry (GCMS) analysis; type: functional; design: scale not given: the % may be the effect or the level left; conditions: dose 4 µg/ml
Nakaseomyces glabratus [8] = experiment: Antifungal activity against Clinical isolate Candida glabrata assessed as inhibition of visible growth; type: functional
Candida albicans [9] = experiment: Antifungal activity against Candida albicans SC5314 assessed as reduction in Obtusifoliol at 4 ug/ml measured after 18 hrs incubation by gas chromatography-mass spectrometry (GCMS) analysis; type: functional; design: scale not given: the % may be the effect or the level left; conditions: dose 4 µg/ml
Cryptococcus neoformans [10] = experiment: Antifungal activity against Cryptococcus neoformans CGMCC 2.3161 assessed as reduction in Obtusifoliol at 8 ug/ml measured after 18 hrs incubation by gas chromatography-mass spectrometry (GCMS) analysis; type: functional; design: scale not given: the % may be the effect or the level left; conditions: dose 8 µg/ml
[11] = Cytotoxicity against human HUVEC cells measured after 72 hrs by MTT assay; type: toxicity, cell-based
Cryptococcus neoformans [12] = experiment: Antifungal activity against Cryptococcus neoformans CGMCC 2.3161 assessed as inhibition of visible growth; type: functional
Cryptococcus neoformans [13] = experiment: Antifungal activity against Cryptococcus neoformans CGMCC 2.3161 assessed as reduction in other sterol at 8 ug/ml measured after 18 hrs incubation by gas chromatography-mass spectrometry (GCMS) analysis (reference value: 2.20%); type: functional; design: scale not given: the % may be the effect or the level left; conditions: dose 8 µg/ml
Cell membrane [14] = experiment: Antifungal activity against Candida albicans SC5314 assessed as reduction in Eburicol at 4 ug/ml measured after 18 hrs incubation by gas chromatography-mass spectrometry (GCMS) analysis; type: subcellular; design: scale not given: the % may be the effect or the level left; conditions: dose 4.0 µg/ml
Candida parapsilosis = experiment: Antifungal activity against Candida parapsilosis GIM 2.190 assessed as inhibition of visible growth; type: functional; conditions: Lodderomyces parapsilosis
Candida albicans [15] = experiment: Antifungal activity against Candida albicans SC5314 assessed as reduction in 14alpha-methylsterols at 4 ug/ml measured after 18 hrs incubation by gas chromatography-mass spectrometry (GCMS) analysis (reference value: 0.69%); type: functional; design: scale not given: the % may be the effect or the level left; conditions: dose 4 µg/ml
Candida albicans [16] = experiment: In vivo anti-resistant activity against fluconazole-resistant Candida albicans strain 17# infected in cyclophosphamide-immunosuppressed ICR mouse model assessed as reduction in fungal burden in kidney at 1 to 5 mg/kg, oral gavage for 5 days post infection; type: functional, organism-based; conditions: dose 1-5 mg/kg, time 5.0 day
Cryptococcus neoformans [17] = experiment: Fungicidal activity against Cryptococcus neoformans CGMCC 2.3161 assessed as concentration of colonies (< 5) measured after 48 hrs incubation; type: functional
Nakaseomyces glabratus [18] = experiment: Inhibition of biofilm formation in clinical isolate Candida glabrata assessed as inhibition of metabolic activity of biofilm measured after 24 hrs by XTT assay; type: functional
Aspergillus fumigatus = experiment: Antifungal activity against Aspergillus fumigatus CGMCC 3.7795 assessed as inhibition of visible growth; type: functional
Cell membrane [19] = experiment: Induction of loss of cell membrane integrity in Candida albicans SC5314 assessed as irregular cell morphology at 16 microg/ml measured after 48 hrs incubation by transmission electron microscopy; type: subcellular; conditions: dose 16.0 µg/ml
Pichia kudriavzevii [20] = experiment: Antifungal activity against Candida krusei AS 2.1045 assessed as inhibition of visible growth; type: functional
[21] = Cytotoxicity against human SH-SY5Y cells measured after 72 hrs by MTT assay; type: toxicity, cell-based
Cryptococcus neoformans [22] = experiment: Antifungal activity against Cryptococcus neoformans CGMCC 2.3161 assessed as reduction in ergosterol at 8 ug/ml measured after 18 hrs incubation by gas chromatography-mass spectrometry (GCMS) analysis (reference value: 94.48%); type: functional; design: scale not given: the % may be the effect or the level left; conditions: dose 8 µg/ml
Cryptococcus neoformans [23] = experiment: Inhibition of biofilm formation in Cryptococcus neoformans CGMCC 2.3161 assessed as inhibition of metabolic activity of biofilm measured after 24 hrs by XTT assay; type: functional
Pichia kudriavzevii [24] = experiment: Fungicidal activity against Candida krusei AS 2.1045 assessed as concentration of colonies (< 5) measured after 48 hrs incubation; type: functional

## OC(Cn1cncn1)(Cn1cncn1)c1ccc(F)cc1F [FLUCONAZOLE]
Candida albicans [1]
  MIC80: 0.5 µg/mL (≈ 1.63 µM)
Nakaseomyces glabratus [2]
  MFC: > 128 µg/mL
Candida albicans [3]
  Activity: 3.81%
Candida tropicalis
  MIC80: 0.25 µg/mL (≈ 0.816 µM)
Candida albicans [4]
  Activity: 13.1%
Candida albicans [5]
  MIC80: 0.25 µg/mL (≈ 0.816 µM)
Cryptococcus neoformans [6]
  Activity: 5.92%
Candida albicans [7]
  Activity: 18.35%
Nakaseomyces glabratus [8]
  MIC80: 32 µg/mL (≈ 104 µM)
Candida albicans [9]
  Activity: 18.55%
Cryptococcus neoformans [10]
  Activity: 3.85%
[11]
  IC50 at 72 h: > 40 µM
Cryptococcus neoformans [12]
  MIC80: 16 µg/mL (≈ 52.2 µM)
Cryptococcus neoformans [13]
  Activity: 3.51%
Cell membrane [14]
  Activity: 49.5%
Candida parapsilosis
  MIC80: 1 µg/mL (≈ 3.27 µM)
Candida albicans [15]
  Activity: 8.46%
Candida albicans [16]
  Activity: inactive
Cryptococcus neoformans [17]
  MFC: > 128 µg/mL
Nakaseomyces glabratus [18]
  MIC50: 0.12 µg/mL (≈ 0.392 µM)
Aspergillus fumigatus
  MIC80: > 64 µg/mL
Cell membrane [19]
  Activity: Active
Pichia kudriavzevii [20]
  MIC80: 8 µg/mL (≈ 26.1 µM)
[21]
  IC50 at 72 h: > 100 µM
Cryptococcus neoformans [22]
  Activity: 86.73%
Cryptococcus neoformans [23]
  MIC50: 32 µg/mL (≈ 104 µM)
Pichia kudriavzevii [24]
  MFC: > 128 µg/mL
